Data: patent US12679878B2, “CRF2 receptor agonists and their use in therapy” (SANOFI, priority 2020, dated 2026)
Starred links: 1 amine or outer side, 2 acyl side, 3 side chain; linkers in the order of their positions; H or OH if unused. Non-standard residues stand in square brackets, D forms with d. Residues, ends and D or L forms follow the SMILES beside them. Groups on a side chain read outwards from the residue. *: point of attachment. C18 diacid = O=C(O)CCCCCCCCCCCCCCCCC(=O)*; γGlu = O=C(O)[C@H](CCC(=O)[*:2])N[*:1]; Palmitoyl = CCCCCCCCCCCCCCCC(=O)*; AEEA = NCCOCCOCC(=O)O; Aib = CC(C)(N)C(=O)O

What was measured:
Format in all cases: cell-based
human CRF2α receptor = target: T1, human CRF2α receptor (Homo sapiens, UniProt Q13324); assay: cAMP agonism at human CRF2 α receptor in TeloHEAC cells (Example 7); conditions: cAMP HTRF, TeloHEAC cells stably expressing human CRF2 α, 0% HSA; read-out: EC50 [nM], 0% HSA
T1 construct: expressed in transfected cells; host or cells: TeloHEAC
T1 sequence (Q13324 1-411): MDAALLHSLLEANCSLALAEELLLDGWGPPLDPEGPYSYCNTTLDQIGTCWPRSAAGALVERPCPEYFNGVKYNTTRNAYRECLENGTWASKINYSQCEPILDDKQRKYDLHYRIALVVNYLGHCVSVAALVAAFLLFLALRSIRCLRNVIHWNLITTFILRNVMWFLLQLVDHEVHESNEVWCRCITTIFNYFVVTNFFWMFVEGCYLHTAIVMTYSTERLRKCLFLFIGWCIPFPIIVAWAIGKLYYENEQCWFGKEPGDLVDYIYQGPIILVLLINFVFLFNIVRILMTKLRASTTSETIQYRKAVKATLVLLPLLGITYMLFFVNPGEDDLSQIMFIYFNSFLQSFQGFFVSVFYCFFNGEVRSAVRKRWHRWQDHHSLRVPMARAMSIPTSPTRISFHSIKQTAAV
Outline: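 HTRF ratio 665/620 nm, read 1 h after lysis reagents, reports cAMP. Cells: thawed stocks, 2000/well, 30 min RT with compound in HBSS, 20 mM HEPES, 0 or 0.1% HSA, 2 mM IBMX. Activity normalised to UCN2 1000 nM = 100%; EC50 from half-maximal activation.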

CRF1R receptor = target: T2, CRF1R receptor (Homo sapiens, UniProt P34998); assay: cAMP activity at anti-target CRF1R, CRF1R-overexpression CHO cell line (Example 9); conditions: CRF1R-overexpression CHO cell line; for EC50: 0% HSA; for Emax: read-out: Emax (%)
T2 construct: host or cells: CHO-K1 clone 2
T2 sequence (P34998 24-415): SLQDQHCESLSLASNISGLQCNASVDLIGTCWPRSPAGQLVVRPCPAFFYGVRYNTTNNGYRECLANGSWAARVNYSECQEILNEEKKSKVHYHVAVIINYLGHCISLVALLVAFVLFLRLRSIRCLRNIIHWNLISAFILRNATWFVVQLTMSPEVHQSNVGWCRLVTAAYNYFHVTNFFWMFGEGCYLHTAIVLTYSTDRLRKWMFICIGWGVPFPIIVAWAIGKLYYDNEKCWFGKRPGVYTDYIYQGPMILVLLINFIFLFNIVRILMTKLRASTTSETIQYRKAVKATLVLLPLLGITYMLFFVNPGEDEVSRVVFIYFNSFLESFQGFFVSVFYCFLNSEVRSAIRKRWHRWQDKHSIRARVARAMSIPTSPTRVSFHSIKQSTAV
Outline: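 cAMP accumulation was read by HTRF after 30 min at room temperature of compound treatment. Cells were cryopreserved CHO cells overexpressing CRF1R, plated at 2000/well in IBMX (2 mM)-containing HBSS/HEPES buffer with 0 or 0.1% HSA. Activity was normalized to 1000 nM UCN2 as 100%.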

rat CRF2R α receptor = assay: cAMP agonism at rat CRF2R α receptor in A7R5 rat aortic smooth muscle cells (Example 8); conditions: cAMP HTRF, A7R5 rat aortic smooth muscle cell line, 0% HSA
Outline: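 Thawed cryopreserved A7R5 cells in HBSS/20 mM HEPES (0 or 0.1% HSA) with 2 mM IBMX, 2000 cells/well, were exposed to compound for 30 min at room temperature. cAMP was read by HTRF (665/620 nm ratio) after 1 h with lysis reagents. Activity was normalised to 1000 nM urocortin 2 as 100%, and EC50 was taken as the concentration giving 50% of maximal activation.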

Row | SMILES | EC50 (human CRF2α receptor) [nM] | EC50 (CRF1R receptor) [nM] | Emax (CRF1R receptor) [%] | EC50 (rat CRF2R α receptor) [nM]
1 | CCCCCCCCCCCCCCCC(=O)N[C@@H](CCC(=O)NCCCC[C@H](NC(=O)[C@@H](NC(=O)[C@H](CCCCN)NC(=O)[C@@H](NC(=O)[C@@H]1CCCN1C(=O)[C@@H](NC(=O)[C@H](CC(=O)O)NC(=O)[C@H](CC(C)C)NC(=O)[C@H](CO)NC(=O)[C@H](CC(C)C)NC(=O)[C@@H](NC(=O)[C@@H](N)Cc1ccccc1)[C@@H](C)O)C(C)C)[C@@H](C)O)[C@@H](C)CC)C(=O)N[C@@H](CCC(N)=O)C(=O)N[C@@H](CCCCN)C(=O)N[C@@H](CC(C)C)C(=O)N[C@@H](CC(C)C)C(=O)N[C@@H](CCCCN)C(=O)N[C@@H](CCC(N)=O)C(=O)N[C@@H](CCC(=O)O)C(=O)N[C@@H](CCCCN)C(=O)N[C@@H](CCC(N)=O)C(=O)N[C@@H](CCCCN)C(=O)N[C@@H](CCCCN)C(=O)N[C@@H](CCC(N)=O)C(=O)N[C@@H](CCCNC(=N)N)C(=O)N[C@@H](CCC(N)=O)C(=O)N[C@@H](CCCCN)C(=O)N[C@@H](C)C(=O)N[C@@H](CCCCN)C(=O)N[C@H](C(=O)N[C@@H](C)C(=O)N[C@@H](C)C(=O)N[C@@H](CCC(N)=O)C(=O)N[C@H](C(=O)N[C@@H](CC(C)C)C(=O)N[C@@H](C)C(=O)N[C@@H](CCC(N)=O)C(=O)N[C@H](C(N)=O)C(C)C)[C@@H](C)CC)[C@@H](C)O)C(=O)O [compound 8] (H-FTLSLDVPTKIK([γGlu-Palmitoyl])QKLLKQEKQKKQRQKAKTAAQILAQV-NH2; N-terminus assumed) | 0.2 | > 1000 | 16 | 0.11
2 | CCCCCCCCCCCCCCCC(=O)N[C@@H](CCC(=O)NCCCC[C@H](NC(=O)[C@@H](NC(=O)[C@H](CCCCN)NC(=O)[C@@H](NC(=O)[C@@H]1CCCN1C(=O)[C@@H](NC(=O)[C@H](CC(=O)O)NC(=O)[C@H](CC(C)C)NC(=O)[C@H](CO)NC(=O)[C@H](CC(C)C)NC(=O)[C@@H](NC(=O)[C@@H](N)Cc1ccccc1)[C@@H](C)O)C(C)C)[C@@H](C)O)[C@@H](C)CC)C(=O)N[C@@H](CCC(N)=O)C(=O)N[C@@H](CCCCN)C(=O)N[C@@H](CC(C)C)C(=O)N[C@@H](CC(C)C)C(=O)N[C@@H](CCCCN)C(=O)N[C@@H](CCC(N)=O)C(=O)N[C@@H](CCC(=O)O)C(=O)N[C@@H](CCCCN)C(=O)N[C@@H](CCC(N)=O)C(=O)N[C@@H](CCCCN)C(=O)N[C@@H](CCCCN)C(=O)N[C@@H](CCC(N)=O)C(=O)N[C@@H](CCCNC(=N)N)C(=O)N[C@@H](CCC(N)=O)C(=O)N[C@@H](CCCCN)C(=O)N[C@@H](C)C(=O)N[C@@H](CCCCN)C(=O)N[C@H](C(=O)N[C@@H](CC(N)=O)C(=O)N[C@@H](C)C(=O)N[C@@H](CCC(N)=O)C(=O)N[C@H](C(=O)N[C@@H](CC(C)C)C(=O)N[C@@H](C)C(=O)N[C@@H](CCC(N)=O)C(=O)N[C@H](C(N)=O)C(C)C)[C@@H](C)CC)[C@@H](C)O)C(=O)O [compound 11] (H-FTLSLDVPTKIK([γGlu-Palmitoyl])QKLLKQEKQKKQRQKAKTNAQILAQV-NH2) | 0.02 | > 1000 | 12.7 | 0.01
3 | CC[C@H](C)[C@H](NC(C)=O)C(=O)N[C@H](C(=O)N[C@@H](CC(C)C)C(=O)N[C@@H](CO)C(=O)N[C@@H](CC(C)C)C(=O)N[C@@H](CC(=O)O)C(=O)N[C@@H](C(=O)N1CCC[C@H]1C(=O)N[C@H](C(=O)N[C@@H](CCCCN)C(=O)N[C@@H](CC(C)C)C(=O)N[C@@H](CCCCNC(=O)COCCOCCNC(=O)COCCOCCNC(=O)CC[C@H](NC(=O)CCCCCCCCCCCCCCCCC(=O)O)C(=O)O)C(=O)N[C@@H](CCC(N)=O)C(=O)N[C@H](C(=O)N[C@@H](CC(C)C)C(=O)N[C@@H](CC(C)C)C(=O)N[C@@H](CCC(=O)O)C(=O)N[C@@H](CCC(N)=O)C(=O)N[C@@H](C)C(=O)N[C@@H](CCCNC(=N)N)C(=O)N[C@@H](CCC(N)=O)C(=O)N[C@@H](CCCCN)C(=O)NC(C)(C)C(=O)N[C@@H](CCC(N)=O)C(=O)N[C@@H](CCCNC(=N)N)C(=O)N[C@@H](CCC(=O)O)C(=O)N[C@@H](CCC(N)=O)C(=O)N[C@@H](C)C(=O)N[C@@H](CCC(=O)O)C(=O)N[C@@H](CCCCN)C(=O)N[C@@H](CC(N)=O)C(=O)N[C@@H](CCC(=O)O)C(=O)N[C@@H](CCC(N)=O)C(=O)N[C@H](C(=O)N[C@@H](CC(C)C)C(=O)N[C@@H](CCC(=O)O)C(=O)N[C@@H](CCC(N)=O)C(=O)N[C@H](C(N)=O)C(C)C)[C@@H](C)CC)[C@@H](C)CC)[C@@H](C)CC)C(C)C)C(C)C [compound 165] (Ac-IVLSLD[dV]PIKLK([AEEA-AEEA-γGlu-C18 diacid])QILLEQARQK[Aib]QREQAEKNEQILEQV-NH2) |  |  | 26.9 | 2.41
4 | CC[C@H](C)[C@H](NC(C)=O)C(=O)N[C@H](C(=O)N[C@@H](CC(C)C)C(=O)N[C@@H](CO)C(=O)N[C@@H](CC(C)C)C(=O)N[C@@H](CC(=O)O)C(=O)N[C@@H](C(=O)N1CCC[C@H]1C(=O)N[C@H](C(=O)N[C@@H](CCCCN)C(=O)N[C@@H](CC(C)C)C(=O)N[C@@H](CCCCNC(=O)COCCOCCNC(=O)COCCOCCNC(=O)CC[C@H](NC(=O)CCCCCCCCCCCCCCCCC(=O)O)C(=O)O)C(=O)N[C@@H](CCC(N)=O)C(=O)N[C@H](C(=O)N[C@@H](CC(C)C)C(=O)N[C@@H](CC(C)C)C(=O)N[C@@H](CCC(=O)O)C(=O)N[C@@H](CCC(N)=O)C(=O)N[C@@H](CCC(=O)O)C(=O)N[C@@H](CCCNC(=N)N)C(=O)N[C@@H](CCC(N)=O)C(=O)N[C@@H](CCCCN)C(=O)NC(C)(C)C(=O)N[C@@H](CCC(N)=O)C(=O)N[C@@H](CCCNC(=N)N)C(=O)N[C@@H](CCC(=O)O)C(=O)N[C@@H](CCC(N)=O)C(=O)N[C@@H](C)C(=O)N[C@@H](CCC(=O)O)C(=O)N[C@@H](CCCCN)C(=O)N[C@@H](CC(N)=O)C(=O)N[C@@H](CCC(=O)O)C(=O)N[C@@H](CCC(N)=O)C(=O)N[C@H](C(=O)N[C@@H](CC(C)C)C(=O)N[C@@H](CCC(=O)O)C(=O)N[C@@H](CCC(N)=O)C(=O)N[C@H](C(N)=O)C(C)C)[C@@H](C)CC)[C@@H](C)CC)[C@@H](C)CC)C(C)C)C(C)C [compound 166] (Ac-IVLSLD[dV]PIKLK([AEEA-AEEA-γGlu-C18 diacid])QILLEQERQK[Aib]QREQAEKNEQILEQV-NH2) |  |  | 5.94 | 9.99
5 | CC[C@H](C)[C@H](NC(C)=O)C(=O)N[C@H](C(=O)N[C@@H](CC(C)C)C(=O)N[C@@H](CO)C(=O)N[C@@H](CC(C)C)C(=O)N[C@@H](CC(=O)O)C(=O)N[C@@H](C(=O)N1CCC[C@H]1C(=O)N[C@H](C(=O)NCC(=O)N[C@@H](CC(C)C)C(=O)N[C@@H](CCCCNC(=O)COCCOCCNC(=O)COCCOCCNC(=O)CC[C@H](NC(=O)CCCCCCCCCCCCCCCCC(=O)O)C(=O)O)C(=O)N[C@@H](CCC(N)=O)C(=O)N[C@H](C(=O)N[C@@H](CC(C)C)C(=O)N[C@@H](CC(C)C)C(=O)N[C@@H](CCC(=O)O)C(=O)N[C@@H](CCC(N)=O)C(=O)N[C@@H](CCC(=O)O)C(=O)N[C@@H](CCCNC(=N)N)C(=O)N[C@@H](CCC(N)=O)C(=O)N[C@@H](CCCCN)C(=O)NC(C)(C)C(=O)N[C@@H](CCC(N)=O)C(=O)N[C@@H](CCCNC(=N)N)C(=O)N[C@@H](CCC(=O)O)C(=O)N[C@@H](CCC(N)=O)C(=O)N[C@@H](C)C(=O)N[C@@H](CCC(=O)O)C(=O)N[C@@H](CCCCN)C(=O)N[C@@H](CC(N)=O)C(=O)N[C@@H](CCC(=O)O)C(=O)N[C@@H](CCC(N)=O)C(=O)N[C@H](C(=O)N[C@@H](CC(C)C)C(=O)N[C@@H](CCC(=O)O)C(=O)N[C@@H](CCC(N)=O)C(=O)N[C@H](C(N)=O)C(C)C)[C@@H](C)CC)[C@@H](C)CC)[C@@H](C)CC)C(C)C)C(C)C [compound 167] (Ac-IVLSLD[dV]PIGLK([AEEA-AEEA-γGlu-C18 diacid])QILLEQERQK[Aib]QREQAEKNEQILEQV-NH2) |  |  | -0.46 | 76.9
